# Reference: US20260083708A1, “IL-17 MODULATORS AND USES THEREOF” (NNOCARE PHARMA INC., priority 2024, published 2026)
# Legend:
# [1] = biological target: T1, IL-17AA and IL-17RA (Homo sapiens, UniProt Q16552); assay: Competitive inhibition of human IL-17AA and IL-17RA binding (HTRF); conditions: recombinant IL-17AA (His-tag) and IL-17RA (hFc-tag); read-out: IC50 for Inhibiting IL-AA/IL-RA Binding
# T1 construct: purchased Sino Biological 12047-H07B (IL-17AA); 10895-H02H (IL-17RA)
# T1 sequence (Q16552 24-155): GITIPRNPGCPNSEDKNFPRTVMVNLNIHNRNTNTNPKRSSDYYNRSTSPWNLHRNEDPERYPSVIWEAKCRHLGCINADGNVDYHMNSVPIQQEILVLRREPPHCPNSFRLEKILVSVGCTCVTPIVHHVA
# Summary of the method: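 His-IL-17AA (1 nM) premixed 1 h with anti-His-Tb (0.4 nM), and Fc-IL-17RA (1 nM) with anti-IgG-d2 (1 μg/mL); these are pre-mix levels. Compounds, diluted from 10 μM, preincubated 2 h RT with IL-17AA mix; IL-17RA mix then added, 20 min. 665/615 ratio vs no-compound and no-IL-17AA controls; IC50 by 4-parameter fit.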
# [2] = system: IL-17AA-induced IL-17 signaling pathway; assay: Inhibition of IL-17AA-induced IL-17 signaling pathway in HEK-Blue IL-17 reporter cells (SEAP); format: cell-based; conditions: Homo sapiens; HEK-Blue IL-17 cells, IL-17AA 2.5 ng/mL, 20 hours; read-out: IC50 for Inhibiting IL-AA Signaling
# Summary of the method: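 HEK-Blue IL-17 cells (HEK293 expressing human IL-17RA/RC, ACT1 and NF-κB/AP-1-driven SEAP), 10,000/well, pre-incubated with compound (serial dilution from 10 μM) for 1 h at 37 °C, then stimulated with IL-17AA at 2.5 ng/mL final for 20 h. SEAP in supernatant read with Quanti-Blue at 620 nm; IC50 by 4-parameter fit.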
# [3] = system: IL-17AF-induced IL-17 signaling pathway; assay: Inhibition of IL-17AF-induced IL-17 signaling pathway; format: cell-based; conditions: Homo sapiens; IL-17AF used instead of IL-17AA; read-out: IC50 for Inhibiting IL-AF Signaling
# Summary of the method: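 HEK293-derived HEK-Blue IL-17 cells (IL-17RA/RC, ACT1, NF-κB/AP-1-driven SEAP) preincubated 1 hour at 37° C with serially diluted compound from 10 μM, then stimulated with IL-17AF for 20 hours. SEAP read colorimetrically at 620 nm; IC50 from 4-parameter fit of % inhibition.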
Structure (SMILES),IC50 [1] [nM],IC50 [2] [nM],IC50 [3] [nM]
"CCn1nccc1C(=O)N[C@H](C(=O)Nc1ccc([C@H](C)[C@@H](NC(=O)COC)c2ncnn2CC2CC2)cc1OC)C(C1CC1)C1CC1 [Compound 45, N-((S)-1,1-dicyclopropyl-3-((4-((1R,2S)-1-(1-(cyclopropylmethyl)-1H-1,2,4-triazol-5-yl)-1-(2-methoxyacetamido)propan-2-yl)-2-methoxyphenyl)amino)-3-oxopropan-2-yl)-1-ethyl-1H-pyrazole-5-carboxamide]",153,194,1210
"CCn1nccc1C(=O)N[C@H](C(=O)Nc1ncc([C@H](C)[C@@H](NC(=O)COC)c2ncnn2CC2CC2)cc1F)C(C1CC1)C1CC1 [Compound 46, N-((S)-1,1-dicyclopropyl-3-((5-((1R,2S)-1-(1-(cyclopropylmethyl)-1H-1,2,4-triazol-5-yl)-1-(2-methoxyacetamido)propan-2-yl)-3-fluoropyridin-2-yl)amino)-3-oxopropan-2-yl)-1-ethyl-1H-pyrazole-5-carboxamide]",29,124,159
"CCn1nccc1C(=O)N[C@H](C(=O)Nc1ccc([C@H](C)[C@@H](NC(=O)COC)c2ncnn2CC2CC2)cn1)C(C1CC1)C1CC1 [Compound 48, N-((S)-1,1-dicyclopropyl-3-((5-((1R,2S)-1-(1-(cyclopropylmethyl)-1H-1,2,4-triazol-5-yl)-1-(2-methoxyacetamido)propan-2-yl)pyridin-2-yl)amino)-3-oxopropan-2-yl)-1-ethyl-1H-pyrazole-5-carboxamide]",41,13,202
"CCn1nccc1C(=O)N[C@H](C(=O)Nc1ccc([C@H](C)[C@@H](NC(=O)CN2CCC2)c2ncnn2CC2CC2)cc1F)C(C1CC1)C1CC1 [Compound 51, N-((S)-1-((4-((1R,2S)-1-(2-(azetidin-1-yl)acetamido)-1-(1-(cyclopropylmethyl)-1H-1,2,4-triazol-5-yl)propan-2-yl)-2-fluorophenyl)amino)-3,3-dicyclopropyl-1-oxopropan-2-yl)-1-ethyl-1H-pyrazole-5-carboxamide]",50,178,211
"CCn1nccc1C(=O)N[C@H](C(=O)Nc1ccc([C@H](C)[C@@H](NC(=O)COC)c2ncnn2CCN2CCN(C)CC2)cc1F)C(C1CC1)C1CC1 [Compound 52, N-((S)-1,1-dicyclopropyl-3-((2-fluoro-4-((1R,2S)-1-(2-methoxyacetamido)-1-(1-(2-(4-methylpiperazin-1-yl)ethyl)-1H-1,2,4-triazol-5-yl)propan-2-yl)phenyl)amino)-3-oxopropan-2-yl)-1-ethyl-1H-pyrazole-5-carboxamide]",182,2220,2730
"Cc1nonc1C(=O)N[C@H](C(=O)Nc1ccc([C@H](C)[C@@H](NC(=O)COC2CNC2)c2ncnn2CC2CC2)cc1F)C(C1CC1)C1CC1 [Compound 55, N-((S)-1-((4-((1R,2S)-1-(2-(azetidin-3-yloxy)acetamido)-1-(1-(cyclopropylmethyl)-1H-1,2,4-triazol-5-yl)propan-2-yl)-2-fluorophenyl)amino)-3,3-dicyclopropyl-1-oxopropan-2-yl)-4-methyl-1,2,5-oxadiazole-3-carboxamide]",40,142,210

# Stronger by IC50 [1], values ahead:
IC50 [1] [nM],IC50 [2] [nM],IC50 [3] [nM],Structure (SMILES)
28,93,87,"CCn1nccc1C(=O)N[C@H](C(=O)Nc1ccc([C@H](C)[C@@H](NC(=O)CO)c2ncnn2CC2CC2)cc1F)C(C1CC1)C1CC1 [Compound 49, N-((S)-1,1-dicyclopropyl-3-((4-((1R,2S)-1-(1-(cyclopropylmethyl)-1H-1,2,4-triazol-5-yl)-1-(2-hydroxyacetamido)propan-2-yl)-2-fluorophenyl)amino)-3-oxopropan-2-yl)-1-ethyl-1H-pyrazole-5-carboxamide]"
13,78,145,"Cc1nonc1C(=O)N[C@H](C(=O)Nc1ccc([C@H](C)[C@@H](NC(=O)COC2CN(C)C2)c2ncnn2CC2CC2)cc1F)C(C1CC1)C1CC1 [Compound 56, N-((S)-1,1-dicyclopropyl-3-((4-((1R,2S)-1-(1-(cyclopropylmethyl)-1H-1,2,4-triazol-5-yl)-1-(2-((1-methylazetidin-3-yl)oxy)acetamido)propan-2-yl)-2-fluorophenyl)amino)-3-oxopropan-2-yl)-4-methyl-1,2,5-oxadiazole-3-carboxamide]"
7.4,5.6,16,"COCC(=O)N[C@@H](c1ncnn1CC1CC1)[C@@H](C)c1ccc(NC(=O)[C@@H](NC(=O)c2ccnn2C)C(C2CC2)C2CC2)c(F)c1 [Compound 53, N-((S)-1,1-dicyclopropyl-3-((4-((1R,2S)-1-(1-(cyclopropylmethyl)-1H-1,2,4-triazol-5-yl)-1-(2-methoxyacetamido)propan-2-yl)-2-fluorophenyl)amino)-3-oxopropan-2-yl)-1-methyl-1H-pyrazole-5-carboxamide]"
6.8,95,88,"Cc1nonc1C(=O)N[C@H](C(=O)Nc1ccc([C@H](C)[C@@H](NC(=O)CO)c2ncnn2CC2CC2)cc1F)C(C1CC1)C1CC1 [Compound 57, N-((S)-1,1-dicyclopropyl-3-((4-((1R,2S)-1-(1-(cyclopropylmethyl)-1H-1,2,4-triazol-5-yl)-1-(2-hydroxyacetamido)propan-2-yl)-2-fluorophenyl)amino)-3-oxopropan-2-yl)-4-methyl-1,2,5-oxadiazole-3-carboxamide]"
5.6,7.9,26,"CCn1ncnc1C(=O)N[C@H](C(=O)Nc1ccc([C@H](C)[C@@H](NC(=O)COC)c2ncnn2CC2CC2)cc1F)C(C1CC1)C1CC1 [Compound 50, N-((S)-1,1-dicyclopropyl-3-((4-((1R,2S)-1-(1-(cyclopropylmethyl)-1H-1,2,4-triazol-5-yl)-1-(2-methoxyacetamido)propan-2-yl)-2-fluorophenyl)amino)-3-oxopropan-2-yl)-1-ethyl-1H-1,2,4-triazole-5-carboxamide]"
3,3.6,16,"COCC(=O)N[C@@H](c1nnnn1CC1CC1)[C@@H](C)c1ccc(NC(=O)[C@@H](NC(=O)c2nonc2C)C(C2CC2)C2CC2)c(F)c1 [Compound 54, N-((S)-1,1-dicyclopropyl-3-((4-((1R,2S)-1-(1-(cyclopropylmethyl)-1H-tetrazol-5-yl)-1-(2-methoxyacetamido)propan-2-yl)-2-fluorophenyl)amino)-3-oxopropan-2-yl)-4-methyl-1,2,5-oxadiazole-3-carboxamide]"
1.4,5,3.8,"[2H]C([2H])([2H])OCC(=O)N[C@@H](c1ncnn1CC1CC1)[C@@H](C)c1ccc(NC(=O)[C@@H](NC(=O)c2nonc2C)C(C2CC2)C2CC2)c(F)c1 [Compound 58, N-((S)-1,1-dicyclopropyl-3-((4-((1R,2S)-1-(1-(cyclopropylmethyl)-1H-1,2,4-triazol-5-yl)-1-(2-(methoxy-d3)acetamido)propan-2-yl)-2-fluorophenyl)amino)-3-oxopropan-2-yl)-4-methyl-1,2,5-oxadiazole-3-carboxamide]"
